Measurements published in patent US20240238426A1, “PROTEIN ACYLATION MODULATION BY HETEROBIFUNCTIONAL MOLECULES” (THE SCRIPPS RESEARCH INSTITUTE, priority 2021, published 2024).

Legend:
[1] = test system: p21 (CDKNIA), PUMA, MDM2, and GLS2; test: Immunoblot of p53 target gene expression in FKBP12^F36V-p53 H1299 cells; format: cell-based, Human; conditions: 8 hr; for effect of co-treatment on AceTAG-1 induced p21 expression: 3 μM AceTAG-1 with 10 μM A485 or 50 μM FKBP12^F36V-binding ligand, FIG. 7E
Experimental: (§1) Immunoblotting: Cells were harvested in cold DPBS by scraping and washed with cold DPBS twice. Cell pellets were resuspended in DPBS supplemented with 5 mM sodium butyrate, 20 mM Nicotinamide, and 1X Halt Protease Inhibitor Cocktail and lysed by sonication (15 ms on, 40 ms off, 15% amplitude, 1s total on x 3). Protein concentration was determined using DC Protein Assay (Bio-Rad) and absorbance read using a CLARIOstar plate reader following manufacturer's instructions. Samples with equal protein content were boiled in 4X SDS gel loading buffer for 10 min. Proteins were separated by 10%, 12.5%, or 15% SDS-polyacrylamide gel electrophoresis and transferred to PVDF membranes using Trans-Blot Turbo RTA Mini […] LF PVDF Transfer Kit (Bio-Rad). Membranes were incubated for 1 h at room temperature with blocking buffer, followed by incubating overnight at 4° C. with primary antibodies. After washing in TBST, the secondary antibodies were incubated with the membranes at room temperature for 1 h. The membranes were washed with TBST for three times and visualized on a Bio-Rad ChemiDoc MP Imaging System with Clarity Max Western ECL substrate (Bio-Rad) or SuperSignal West Femto Chemiluminescent substrate proprietary luminol and peroxide solution kit (Thermo Scientific Pierce).

H3.3-FKBP12^F36V = target: T1, H3.3-FKBP12^F36V (Homo sapiens, UniProt P62942+Q09472, F37V); test: Immunoblot analysis of H3.3-FKBP12^F36V acetylation in HeLa cells; format: cell-based; conditions: for acetylation of H3.3: HeLa cells, FIG. 8
T1 construct: expressed in transfected cells
T1 sequence (P62942 2-108 F37V limits assumed): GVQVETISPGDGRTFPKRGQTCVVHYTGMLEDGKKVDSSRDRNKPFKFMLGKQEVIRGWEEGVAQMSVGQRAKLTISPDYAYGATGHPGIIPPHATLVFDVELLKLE
T1 sequence (Q09472 2-2414 limits assumed, stated change not applied): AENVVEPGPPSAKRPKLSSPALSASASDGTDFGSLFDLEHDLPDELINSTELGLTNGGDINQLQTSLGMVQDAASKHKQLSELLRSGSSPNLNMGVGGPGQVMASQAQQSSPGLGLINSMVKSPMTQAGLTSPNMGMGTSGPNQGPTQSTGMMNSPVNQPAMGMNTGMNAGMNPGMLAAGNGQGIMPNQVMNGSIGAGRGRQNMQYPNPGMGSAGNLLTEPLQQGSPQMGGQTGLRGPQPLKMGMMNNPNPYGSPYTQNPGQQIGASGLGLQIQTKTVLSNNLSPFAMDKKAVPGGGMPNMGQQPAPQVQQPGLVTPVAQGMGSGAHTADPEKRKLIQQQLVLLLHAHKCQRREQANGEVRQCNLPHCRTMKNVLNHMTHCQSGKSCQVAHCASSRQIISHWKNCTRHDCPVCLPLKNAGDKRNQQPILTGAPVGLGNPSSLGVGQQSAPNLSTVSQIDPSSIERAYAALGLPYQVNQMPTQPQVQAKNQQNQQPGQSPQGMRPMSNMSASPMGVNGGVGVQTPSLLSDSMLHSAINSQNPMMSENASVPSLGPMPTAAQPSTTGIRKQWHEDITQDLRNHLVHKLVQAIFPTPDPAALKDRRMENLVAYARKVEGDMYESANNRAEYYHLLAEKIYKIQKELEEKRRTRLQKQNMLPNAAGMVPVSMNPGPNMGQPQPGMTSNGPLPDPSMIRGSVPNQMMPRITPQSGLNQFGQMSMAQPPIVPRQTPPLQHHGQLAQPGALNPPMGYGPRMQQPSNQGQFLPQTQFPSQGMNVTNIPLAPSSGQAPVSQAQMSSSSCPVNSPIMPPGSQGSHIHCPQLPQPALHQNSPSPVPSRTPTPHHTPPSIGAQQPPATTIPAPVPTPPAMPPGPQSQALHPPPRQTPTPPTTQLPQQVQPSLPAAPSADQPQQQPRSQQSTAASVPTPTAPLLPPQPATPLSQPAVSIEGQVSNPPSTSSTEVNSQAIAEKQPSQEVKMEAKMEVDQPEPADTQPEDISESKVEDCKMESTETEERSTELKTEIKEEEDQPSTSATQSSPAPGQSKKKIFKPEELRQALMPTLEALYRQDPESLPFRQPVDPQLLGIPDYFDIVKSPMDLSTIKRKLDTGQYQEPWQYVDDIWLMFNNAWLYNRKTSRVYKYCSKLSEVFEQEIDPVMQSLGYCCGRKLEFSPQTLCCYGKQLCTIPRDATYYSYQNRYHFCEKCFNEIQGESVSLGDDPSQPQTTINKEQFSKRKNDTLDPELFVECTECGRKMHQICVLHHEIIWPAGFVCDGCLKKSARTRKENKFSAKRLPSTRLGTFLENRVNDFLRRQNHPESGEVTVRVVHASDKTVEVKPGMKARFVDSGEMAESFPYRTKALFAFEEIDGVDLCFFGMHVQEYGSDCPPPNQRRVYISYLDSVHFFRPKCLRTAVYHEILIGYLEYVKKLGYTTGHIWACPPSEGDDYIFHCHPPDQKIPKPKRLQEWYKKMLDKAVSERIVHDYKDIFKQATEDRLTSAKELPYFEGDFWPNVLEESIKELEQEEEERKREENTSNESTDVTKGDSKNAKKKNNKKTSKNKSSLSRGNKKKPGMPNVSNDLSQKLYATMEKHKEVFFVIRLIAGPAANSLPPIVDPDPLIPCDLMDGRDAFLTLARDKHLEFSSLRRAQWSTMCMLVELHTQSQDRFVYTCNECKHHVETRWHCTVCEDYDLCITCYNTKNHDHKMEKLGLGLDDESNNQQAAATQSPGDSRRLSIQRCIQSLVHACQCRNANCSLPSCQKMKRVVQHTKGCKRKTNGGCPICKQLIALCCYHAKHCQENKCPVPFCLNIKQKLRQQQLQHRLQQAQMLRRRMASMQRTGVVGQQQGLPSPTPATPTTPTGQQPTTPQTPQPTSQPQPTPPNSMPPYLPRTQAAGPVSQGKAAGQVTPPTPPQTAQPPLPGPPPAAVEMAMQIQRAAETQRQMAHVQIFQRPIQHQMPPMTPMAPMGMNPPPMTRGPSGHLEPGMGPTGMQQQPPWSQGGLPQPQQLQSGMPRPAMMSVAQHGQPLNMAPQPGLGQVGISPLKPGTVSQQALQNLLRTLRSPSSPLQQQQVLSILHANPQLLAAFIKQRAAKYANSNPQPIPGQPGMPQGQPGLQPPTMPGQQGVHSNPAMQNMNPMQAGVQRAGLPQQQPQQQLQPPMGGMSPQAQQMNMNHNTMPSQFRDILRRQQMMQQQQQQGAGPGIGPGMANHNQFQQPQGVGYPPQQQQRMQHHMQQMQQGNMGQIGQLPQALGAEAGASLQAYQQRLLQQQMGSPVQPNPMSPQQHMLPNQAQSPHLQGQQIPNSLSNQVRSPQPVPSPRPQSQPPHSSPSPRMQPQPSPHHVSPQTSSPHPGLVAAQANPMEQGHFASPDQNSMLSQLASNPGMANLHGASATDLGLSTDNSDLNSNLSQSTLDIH
Experimental: (§2) Lentivirus Production and Transduction: Lentiviral production was performed using HEK293T cells, which were co-transfected with pMD2.G (Addgene, #12259), psPAX2 (Addgene, #12260), and AceTAG lentiviral plasmids using PEI (Polysciences Inc). Viral particles were collected 72 h after transfection and filtered through a […] membrane. A range of dilutions of the lentivirus in DMEM complete and 10 μg/mL polybrene were added to HeLa, H1299, or HeLa RelA KO cell lines. Transduced cells were selected with 1 μg/mL or 2 μg/mL puromycin.
as §1

[2] = test system: T2, FKBP12^F36V-RelA (Homo sapiens, F37V); test: Immunoblot analysis of FKBP12^F36V-RelA acetylation in RelA-/- HeLa cells; format: cell-based; conditions: 625 nM AceTAG-1 with 50 μM FKBP ligand or 1 μM A485, 2 hr, FIG. 6B
T2 construct: expressed in transfected cells
T2 sequence (P62942 2-108 F37V limits assumed): as the sequence (P62942 2-108 F37V limits assumed) above
T2 sequence (Q09472 2-2414 limits assumed, stated change not applied, further chain): as the sequence (Q09472 2-2414 limits assumed, stated change not applied) above
Experimental: as §2, §1

[3] = test system: T3, FKBP12^F36V-p53 (Homo sapiens, F37V); test: Immunoblot analysis of FKBP12^F36V-p53 acetylation in H1299 cells; format: cell-based; conditions: 625 nM AceTAG-1 with 50 μM FKBP ligand or 1 μM A485, 2 hr, FIG. 6D
T3 construct: expressed in transfected cells
T3 sequence (P62942 2-108 F37V limits assumed): as the sequence (P62942 2-108 F37V limits assumed) above
T3 sequence (Q09472 2-2414 limits assumed, stated change not applied, further chain): as the sequence (Q09472 2-2414 limits assumed, stated change not applied) above
Experimental: as §2, §1

[4] = test system: H3.3-FKBP12^F36V HeLa cells; test: Quantitative acetylproteomics of H3.3-FKBP12^F36V HeLa cells; format: cell-based, Human; conditions: 2 μM SAHA, FIG. 5E
Experimental: Sample preparation: Frozen cell pellets were thawed on ice and lysed in a buffer containing 50 mM Tris-HCl (pH 7.5), 150 mM NaCl, 1 mM EDTA, 1% NP-40, 0.1% sodium deoxycholate, 5 mM sodium butyrate, 10 mM nicotinamide and 1X Pierce™ protease inhibitor cocktail. Cells were sonicated to ensure complete lysis, mixed with 5 M NaCl at a ratio of 1:10 with sample volume and incubated on ice for 15 min to release chromatin-bound proteins. Cell lysates were then sonicated again to shear genomic DNA. Cellular debris was cleared by centrifugation at 16,000 g for 20 min at 4° C., protein concentration was determined using a Pierce™ BCA assay and ˜10 mg of protein was aliquoted for acetyl-proteomic analysis. Proteins were denatured with 8 M urea in 50 mM HEPES, reduced with 5 mM dithiothreitol for 30 min at 56° C., then alkylated with 5 mM iodoacetamide for 20 min in the dark at RT. Following alkylation, proteins were precipitated using chloroform-methanol as previously described, and protein pellets were dried at 56° C. for 15 min. Proteins pellets were resuspended in 1 M urea in 50 mM HEPES and digested in a two-step process with LysC and trypsin as previously described. Digested peptides were desalted using Phenomenex Strata-X polymeric reverse phase extraction cartridges using the following protocol. Cartridges were conditioned with 1 mL 100% acetonitrile, 1 mL 80% acetonitrile/0.5% AA, and 1 mL 0.1% TFA. Peptides were then loaded on to the cartridge at a reduced flow rate and desalted with 5 mL 0.1% TFA followed by 1 mL 0.5% AA. Desalted peptides were eluted using 1 mL 40% acetonitrile/0.5% AA followed by 1 mL 80% acetonitrile/0.5% AA and lyophilized. Digested peptides were quantified using the Pierce™ Quantitative Colorimetric Peptide Assay and […] was aliquoted from each for total protein analysis while the remaining peptide was lyophilized and retained for acetyl-peptide enrichment.
Acetyl-peptide Enrichment: Acetyl-peptides were enriched using the PTMScan® Acetyl-Lysine Motif [Ac-K] Kit according to manufacturer instructions. […]

[5] = target: 6xHis-p300-BRD (active motif #31372) (UniProt Q09472); test: AlphaScreen, GST-FKBP12^F36V and 6xHis-p300-BRD with a titration of the small molecule AceTAG-1; bell-shaped curve
6xHis-p300-BRD (active motif #31372), sequence (Q09472 1040-1161 limits assumed): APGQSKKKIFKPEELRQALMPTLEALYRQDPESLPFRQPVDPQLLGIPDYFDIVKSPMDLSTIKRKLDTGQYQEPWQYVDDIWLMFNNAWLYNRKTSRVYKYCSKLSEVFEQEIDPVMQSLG

CNC(=O)Nc1ccc2c(c1)CC[C@@]21OC(=O)N(CC(=O)N(Cc2ccc(F)cc2)[C@@H](C)C(F)(F)F)C1=O [A485, reference compound]
effect of co-treatment on AceTAG-1 induced p21 expression [1]: blocked

CC[C@H](C(=O)N1CCCC[C@H]1C(=O)O[C@H](CCc1ccc(OC)c(OC)c1)c1cccc(OCC(=O)NCCOCCOCCOCCC(=O)NCCOc2ccc(CCc3nc4cc(-c5c(C)noc5C)ccc4n3CCN3CCOCC3)cc2)c1)c1cc(OC)c(OC)c(OC)c1 [AceTAG-2, (R)-3-(3,4-dimethoxyphenyl)-1-(3-((18-(4-(2-(5-(3,5-dimethylisoxazol-4-yl)-1-(2-morpholinoethyl)-1H-benzo[d]imidazol-2-yl)ethyl)phenoxy)-2,15-dioxo-6,9,12-trioxa-3,16-diazaoctadecyl)oxy)phenyl)propyl (S)-1-((S)-2-(3,4,5-trimethoxyphenyl)butanoyl)piperidine-2-carboxylate]
acetylation of H3.3 (H3.3-FKBP12^F36V): significant acetylation of H3.3

CC[C@H](C(=O)N1CCCC[C@H]1C(=O)O[C@H](CCc1ccc(OC)c(OC)c1)c1cccc(OCC(=O)NCCCCCCCC(=O)NCCOc2ccc(CCc3nc4cc(-c5c(C)noc5C)ccc4n3CCN3CCOCC3)cc2)c1)c1cc(OC)c(OC)c(OC)c1 [AceTAG-3, (R)-3-(3,4-dimethoxyphenyl)-1-(3-(2-((8-((2-(4-(2-(5-(3,5-dimethylisoxazol-4-yl)-1-(2-morpholinoethyl)-1H-benzo[d]imidazol-2-yl)ethyl)phenoxy)ethyl)amino)-8-oxooctyl)amino)-2-oxoethoxy)phenyl)propyl (S)-1-((S)-2-(3,4,5-trimethoxyphenyl)butanoyl)piperidine-2-carboxylate]
acetylation of H3.3 (H3.3-FKBP12^F36V): significant acetylation of H3.3

CC[C@H](C(=O)N1CCCC[C@H]1C(=O)OC(CCc1ccc(OC)c(OC)c1)c1cccc(OCC(=O)NCCCCCCCC(=O)NCCOc2ccc(CCc3nc4cc(-c5c(C)noc5C)ccc4n3CCN3CCOCC3)cc2)c1)c1cc(OC)c(OC)c(OC)c1 (some centres unmarked) [AceTAG-4]
acetylation of H3.3 (H3.3-FKBP12^F36V): significant acetylation of H3.3

CCCNC(=O)COc1cccc([C@@H](CCc2ccc(OC)c(OC)c2)OC(=O)[C@@H]2CCCCN2C(=O)[C@@H](CC)c2cc(OC)c(OC)c(OC)c2)c1 [FKBP-c, (R)-3-(3,4-dimethoxyphenyl)-1-(3-(2-oxo-2-(propylamino)ethoxy)phenyl)propyl (S)-1-((S)-2-(3,4,5-trimethoxyphenyl)butanoyl)piperidine-2-carboxylate]
effect of co-treatment on AceTAG-1 induced RelA acetylation [2]: blockade of induced acetylation | effect of co-treatment on AceTAG-1 induced acetylation of H3.3-FKBP12^F36V (H3.3-FKBP12^F36V; 625 nM AceTAG-1 with 50 μM FKBP ligand or 1 μM A485, 2 hr, FIG. 4D): blocked | effect of co-treatment on AceTAG-1 induced p53 acetylation [3]: blockade of induced acetylation | effect of co-treatment on AceTAG-1 induced p21 expression [1]: blocked | p21 expression level with ligand alone ([1]; 3 μM, compared to 3 μM AceTAG-1, FIG. 7E): neither p300 nor FKBP ligand alone increases p21 expression level

O=C(CCCCCCC(=O)Nc1ccccc1)NO [SAHA, Vorinostat, reference compound]
number of proteins with increased acetylation relative to DMSO [4]: ~30 proteins

GST-FKBP12^F36V (from UniProt P62942 2-108)
AceTAG-1 concentration at maximum ternary complex formation [5]: 1 µM
